The test system of data set [1] is IFNα/pSTAT5. Kind of data set: Whole blood potency (IFNα/pSTAT5), human. The data set is classed as cell-based. Conditions: CD4+ T cells, read-out: Cellular Whole Blood Potency IC50 (IFNα/pSTAT5), Human. The protocol:
Heparinized human whole blood (5 different donors) was acquired from the Stanford Blood Center and used fresh for each experiment. Whole blood was plated (90 μl per well) into a 96-well assay plate immediately prior to initiation of the assay.
Test compounds were diluted serially (3-fold) in DMSO to generate a series of 10 concentrations (at 200× final assay concentrations). […] DMSO dilutions were diluted 10-fold in PBS to generate 20× final assay concentrations.
Pre-incubation of compounds and whole blood was initiated by adding 5 μl of the compound dilutions to the assay plates and incubated for 30 min at 37° C. Blood was then stimulated by the addition of IFN-α (5 μl of 200 ng/ml) (Miltenyi #130-093-873) followed by incubation at 37° C. for 15 min. Assays were terminated by the addition of Lyse/Fix (BD Biosciences #558049) (60 μl treated blood+1 ml Lyse/Fix) and incubated for 10 min. Cells were diluted 1:1 with Wash Buffer (PBS+0.3% BSA) and centrifuged to pellet white blood cells. Fixed cells were washed once with Wash Buffer and the pelleted cell plate was frozen at −80° C.
Cells were thawed and washed once with Wash Buffer prior to the addition of the α-CD3-Blue520 antibody (2 μg/ml final concentration; Biolegend #300481) and incubated for 30 min. Cells were washed twice in Wash Buffer followed by permeabilization in 100% cold methanol for 15 min. Cells were washed three times in Wash Buffer prior to the addition of the α-CD4-APC antibody ([…] final concentration; Biolegend #300514) and the α-pSTAT5-PE antibody (0.67 μg/ml final concentration; Biolegend #936904) and incubated for 90 min. Cells were washed twice in Wash Buffer and resuspended in 90 μl Wash Buffer prior to running on a LSRII flow cytometer (BD Biosciences, San Jose, CA). Total T cells (CD3+) and CD4+ cells were gated, and the Mean Fluorescence Intensity (MFI) was determined from the PE channel to quantify pSTAT5 signal.
The pSTAT5 MFI in the CD4+ gate was used to calculated Activity (% Control):
Data were then analyzed by non-linear regression to determine inhibitory potencies […] using the following equation in Collaborative Drug Discovery (Burlingame, CA): […]
where X: log concentration in Molar; Y: Activity (% Control); Top: curve top plateau; Bottom: curve bottom plateau, fixed range from −20-20%; Hill Slope: unconstrained. Potency data are reported as pIC50 or pIC90 values ±SD. IC90 values are defined from the fitted IC50 values: […]. FIG. 5A.
Exemplary compounds of the invention, compounds 1 and 2 were compared in this assay.

The nature of data set [2]: Brain exposure pharmacokinetics in rats. The data set is classed as in vivo. Conditions: male Sprague Dawley rats, oral gavage 10 mg/kg. The protocol:
The brain exposure of exemplary compounds, e.g., 1, 2, and 4 were evaluated in male Sprague Dawley rats after oral gavage administration at 10 mg/kg. The formulation was 5% DMSO+10% PEG400 in saline. Rats were fasted overnight with food returned 4 hours post-dose. CSF was collected by direct needle puncture into the cisterna magna.
For both rat and mouse studies, brain tissue was washed with 3 volumes of saline prior to homogenization. Brain tissue was homogenized with 3 volumes (v/w) of phosphate buffered saline. Plasma, brain homogenate, and CSF samples (rat only) were analyzed by LC-MS/MS and the concentration of test compound at each time point was determined by linear regression.
Pharmacokinetic parameters were calculated from the plasma, brain, and CSF concentrations by non-compartmental modeling using WinNonlin 8.2.

Data set [3] relates to IL-6 induced pSTAT3. Kind of data set: IL-6 induced pSTAT3 assay in TF-1 cells. The class given is cell-based. Conditions: Homo sapiens, read-out: Cellular selectivity (IL-6/pSTAT3). The protocol: The following example describes the IL-6 induced pSTAT3 assay used to determine the cellular selectivity (IL-6/pSTAT3) of the TYK2 inhibitors.
TF-1 (ATCC®, CRL-2003™) cells were cultured in RPMI 1640 Medium, with GlutaMAX™ Supplement, HEPES for Cell Culture (Life Technologies, 72400047), 10% Fetal Bovine Serum (Life Technologies, 26400044), 2 ng/mL human recombinant GM-CSF (Life Technologies, PHC2013), 1 mM Sodium pyruvate (Life Technologies, 11360039), 1% MEM NEAA (Life Technologies, 11140-035), 1% Penicillin/Streptomycin (Life Technologies, 15140-122).
TF-1 (70×10^6) cells were starved overnight in T150 flasks (Opti-MEM™ I Reduced Serum Medium, no phenol red (Life Technologies, 11058-021), 1 mM Na pyruvate (Life Technologies, 11360039), 1% MEM NEAA (Life Technologies, 11140-035), and 1% Penicillin/Streptomycin (Life Technologies, 15140-122)) then seeded into 96-well TPP plates (150 000 cell/well) and incubated with test compounds (Final Concentration [nM]10000-0.05) for 30 minutes at 37° C. […] Stimulation was terminated by addition of lysis buffer (MSD K150SVD) and pSTAT3 detection was measured with Phospho-STAT3 (Tyr705) Kit MSD K150SVD)) according to manufacturer's instruction. Briefly, cell lysates were added to pre-blocked plates, sealed, and shake for 1 hour at room temperature. Plates were then washed and incubated with detection antibody for 1 hour at room temperature. After washing, Read Buffer was added, and plates were read on MSD instrument (Model 1300 MSD Quickplex SQ120).

Data set [4] can be described thus: Mouse colon distribution. Conditions: colon / plasma, read-out: Colon/Plasma Ratio at 12 h. The data set is classed as in vivo.

From patent US20260048051A1, “TREATMENT OF INFLAMMATORY BOWEL DISEASE” (Atomwise Inc., priority 2024, published 2026) come the findings set out here.

pIC50: −log10 of the molar value. Like-named read-outs stand apart in the source and are kept apart here.

For `C[C@@H](c1ccc(Nc2cc(Nc3ncccc3S(C)(=O)=O)ncn2)nc1)N1CC2(COC2)C1` [Compound 1, (S)—N^4-(5-(1-(2-oxa-6-azaspiro[3.3]heptan-6-yl)ethyl)pyridin-2-yl)-N^6-(3-(methylsulfonyl)pyridin-2-yl)pyrimidine-4,6-diamine], the pIC50 is 7.54 in data set [1]; roughly 7.80 in data set [1] (Homo sapiens, CD4+ T); less than 5.00 in data set [3]. Moreover, in data set [2], the “Brain Kpu, u” value is recorded as “†† (†† 0.1-0.2 u)”. The figures for the Kp at 12 h in data set [4] (PO 10 mg/kg), in data set [4] (PO 50 mg/kg) and in data set [4] (PO 200 mg/kg) were 50, 33 and 25, respectively.
As for `C[C@@H](c1ccc(Nc2cc(Nc3ncc(F)cc3S(C)(=O)=O)ncn2)nc1)N1CC2(COC2)C1` [Compound 2, (S)—N^4-(5-(1-(2-oxa-6-azaspiro[3.3]heptan-6-yl)ethyl)pyridin-2-yl)-N^6-(5-fluoro-3-(methylsulfonyl)pyridin-2-yl)pyrimidine-4,6-diamine], the pIC50 is 7.80 in data set [1]; roughly 7.54 in data set [1] (Homo sapiens, CD4+ T); less than 5.00 in data set [3]. Further, the “Brain Kpu, u” value in data set [2] is given as “† († <0.1 u)”. Moreover, the Kp at 12 h stood at 24 in data set [4] (PO 10 mg/kg), 13 in data set [4] (PO 50 mg/kg) and 7.4 in data set [4] (PO 200 mg/kg).
